Measurements from patent US11053243B2 (Merck Sharp & Dohme Corp., priority 2009, dated 2021).
pEC50: −log10 of the molar value.

Tested on: HCV genotype 1b replicon
Experiment: HCV replicon assay, genotype 1b
Type: cell-based, hepatitis C virus
Details: Hepatitis C virus; genotype 1b replicon cells, 24 to 72 hours incubation, luciferase activity
Procedure: The HCV replicons and NS5A inhibitory activity of the present compounds may be tested using assays known in the art. HCV inhibitors, such as those described in the Examples herein have activities in genotype 1b, 2a and 1a replicon assays of from about 1 pM to about 1 μM. The assay is performed by incubating a replicon harboring cell-line in the presence of inhibitor for a set period of time and measuring the effect of the inhibitor on HCV replicon replication either directly by quantifying replicon RNA level, or indirectly by measuring enzymatic activity of a co-encoded reporter enzyme such as luciferase or β-lactamase. By performing a series of such measurements at different inhibitor concentrations, the effective inhibitory concentration of the inhibitor (EC50 or EC90) is determined. See Jan M. Vrolijk et al., A replicons-based bioassay for the measurement of interferons in patients with chronic hepatitis C, 110 J. VIROLOGICAL METHODS 201 (2003). Such assays may also be run in an automated format for high through-put screening. See Paul Zuck et al., A cell-based β-lactamase reporter gene assay for the identification of inhibitors of hepatitis C virus replication, 334 ANALYTICAL BIOCHEMISTRY 344 (2004).
Measurement of inhibition by compounds was performed using the HCV replicon system. Several different replicons encoding different HCV genotypes or mutations were used. In addition, potency measurements were made using different formats of the replicon assay, including different ways of measurements and different plating formats. See Jan M. Vrolijk et al., A replicons-based bioassay for the measurement of interferons in patients with chronic hepatitis C, 110 J. VIROLOGICAL METHODS 201 (2003); Steven S. Carroll et al., Inhibition of Hepatitis C Virus RNA Replication by 2′-Modified Nucleoside Analogs, 278(14) J. BIOLOGICAL CHEMISTRY 11979 (2003). However, the underlying principles are common to all of these determinations, and are outlined below.
Stable neomycin phosphotransferase encoding replicon-harboring cell lines were used, so all cell lines were maintained under G418 selection prior to the assay. In some cases, the cell lines encoded a luciferase:Neor fusion and could be assayed either directly by determination of RNA copy number, or indirectly through measurement of the luciferase activity.
To initiate an assay, replicon cells were plated in the presence of a dilution series of test compound in the absence of G418. Typically, the assays were performed in a 96-well plate format for manual operation, or a 384-well plate in an automated assay. Replicon cells and compound were incubated for 24 to 72 hours. At the end of the assay, cells are washed free of media and compound and then lysed. Luciferase activity was measured using a conventional luciferase assay. EC50 determinations were calculated as a percent of a DMSO control by fitting the data to a four parameter fit function.
The activity table below provides representative data illustrating observed activity against genotype 1b.

Compound	pEC50
N#Cc1c(-c2ccc(NC(=O)[C@@H]3CCCN3C(=O)Cc3ccccc3)cc2)[nH]c2ccc(NC(=O)[C@@H]3CCCN3C(=O)Cc3ccccc3)cc12 [Example 155, (2S)—N-{4-[3-cyano-5-({[(2S)-1-(phenylacetyl)pyrrolidin-2-yl]carbonyl}amino)-1H-indol-2-yl]phenyl}-1-(phenylacetyl)pyrrolidine-2-carboxamide]	9.05
CC(C)(C)OC(=O)N[C@@H](C(=O)N1CCC[C@H]1C(=O)Nc1ccc(-c2[nH]c3ccc(NC(=O)[C@@H]4CCCN4C(=O)[C@H](NC(=O)OC(C)(C)C)c4ccccc4)cc3c2C(=O)NC2CC2)cc1)c1ccccc1 [Example 158, tert-butyl {(1R)-2-[(2S)-2-({4-[5-({[(2S)-1-{(2R)-2-[(tert-butoxycarbonyl)amino]-2-phenylacetyl}pyrrolidin-2-yl]carbonyl}amino)-3-(cyclopropylcarbamoyl)-1H-indol-2-yl]phenyl}carbamoyl)pyrrolidin-1-yl]-2-oxo-1-phenylethyl}carbamate]	9.30
Cc1cccc(-c2c(-c3ccc(NC(=O)[C@@H]4CCCN4C(=O)[C@H](NC(=O)OC(C)(C)C)c4ccccc4)cc3)[nH]c3ccc(NC(=O)[C@@H]4CCCN4C(=O)[C@H](NC(=O)OC(C)(C)C)c4ccccc4)cc23)c1 [Example 169, tert-butyl {(1R)-2-[(2S)-2-({4-[5-({[(2S)-1-{(2R)-2-[(tert-butoxycarbonyl)amino]-2-phenylacetyl}pyrrolidin-2-yl]carbonyl}amino)-3-(3-methylphenyl)-1H-indol-2-yl]phenyl}carbamoyl)pyrrolidin-1-yl]-2-oxo-1-phenylethyl}carbamate]	11.40
CC(=O)NCC#Cc1cc2cc(NC(=O)[C@@H]3CCCN3C(=O)[C@H](NC(=O)OC(C)(C)C)c3ccccc3)ccc2[nH]1 [Example 178, tert-butyl {(1R)-2-[(2S)-2-({2-[3-(acetylamino)prop-1-yn-1-yl]-1H-indol-5-yl}carbamoyl)pyrrolidin-1-yl]-2-oxo-1-phenylethyl}carbamate]	6.50
CC(C)(C)OC(=O)N[C@H](C(=O)N1CCC[C@H]1C(=O)Nc1ccc(-c2cc3cc(C#N)ccc3[nH]2)cc1)c1ccccc1 [Example 186, tert-butyl {(1S)-2-[(2S)-2-{[4-(5-cyano-1H-indol-2-yl)phenyl]carbamoyl}pyrrolidin-1-yl]-2-oxo-1-phenylethyl}carbamate]	10.82
COC(=O)N[C@H](C(=O)N1CCC[C@H]1c1ncc(-c2ccc3c(c2)OCn2c-3cc3cc(-c4cnc([C@@H]5CCCN5C(=O)[C@@H](NC(=O)OC)C(C)C)[nH]4)ccc32)[nH]1)C(C)C [Example 189a, methyl [(2S)-1-{(2S)-2-[5-(10-{2-[(2S)-1-{(2S)-2-[(methoxycarbonyl)amino]-3-methylbutanoyl}pyrrolidin-2-yl]-1H-imidazol-5-yl}indolo[1,2-c] [1,3]benzoxazin-3-yl)-1H-imidazol-2-yl]pyrrolidin-1-yl}-3-methyl-1-oxobutan-2-yl]carbamate]	9.82
COC(=O)N[C@H](C(=O)N1CCC[C@H]1c1ncc(-c2ccc3c(c2)OCn2c-3c(F)c3cc(-c4cnc([C@@H]5CCCN5C(=O)[C@@H](NC(=O)OC)C(C)C)[nH]4)ccc32)[nH]1)C(C)C [Example 189b]	12.00
CCN(CC)[C@@H](C(=O)N1CCC[C@H]1C(=O)Nc1ccc2[nH]c(-c3ccc(-c4nnc([C@@H]5CCCN5C(=O)[C@@H](c5ccccc5)N(CC)CC)o4)cc3)cc2c1)c1ccccc1 [Example 191, 1-[(2R)-2-(diethylamino)-2-phenylacetyl]-N-{2-[4-(5-{(2S)-1-[(2R)-2-(diethylamino)-2-phenylacetyl]pyrrolidin-2-yl}-1,3,4-oxadiazol-2-yl)phenyl]-1H-indol-5-yl}-L-prolinamide]	10.70
COC(=O)N[C@H](C(=O)N1CCC[C@H]1c1ncc(-c2ccc(-c3cc4cc(-c5cnc([C@@H]6CCCN6C(=O)[C@@H](NC(=O)OC)C(C)C)[nH]5)ccc4o3)cc2)[nH]1)C(C)C [Example 192, Methyl {(2S)-1-[(2S)-2-{5-[4-(5-{2-[(2S)-1-{(2S)-2-[(methoxy-carbonyl)amino]-3-methylbutanoyl}pyrrolidin-2-yl]-1H-imidazol-5-yl}-1-benzofuran-2-yl)phenyl]-1H-imidazol-2-yl}pyrrolidin-1-yl]-3-methyl-1-oxobutan-2-yl}carbamate]	11.70
CCN(CC)[C@@H](C(=O)N1CCC[C@H]1c1ncc(-c2ccc(-c3cc4cc(-c5cnc([C@@H]6CCCN6C(=O)[C@@H](c6ccccc6)N(CC)CC)[nH]5)ccc4o3)cc2)[nH]1)c1ccccc1 [Example 193, (2R)-2-(diethylamino)-1-[(2S)-2-(5-{4-[5-(2-{(2S)-1-[(2R)-2-(diethylamino)-2-phenylacetyl]pyrrolidin-2-yl}-1H-imidazol-5-yl)-1-benzofuran-2-yl]phenyl}-1H-imidazol-2-yl)pyrrolidin-1-yl]-2-phenylethanone]	10.30
COC(=O)N[C@@H](C(=O)N1CCC[C@H]1c1ncc(-c2ccc(-c3nc4cc(-c5cnc([C@@H]6CCCN6C(=O)[C@H](NC(=O)OC)c6ccccc6)[nH]5)ccc4o3)cc2)[nH]1)c1ccccc1 [Example 213, Methyl {(1R)-2-[(2S)-2-{5-[4-(5-{2-[(2S)-1-{(2R)-2-[(methoxycarbonyl)amino]-2-phenylacetyl}pyrrolidin-2-yl]-1H-imidazol-5-yl}-1,3-benzoxazol-2-yl)phenyl]-1H-imidazol-2-yl}pyrrolidin-1-yl]-2-oxo-1-phenylethyl}carbamate]	11.05

Same assay, conditions: genotype 1b replicon cells, 24 to 72 hours incubation, luciferase activity

Compound	pEC50
CN(C)[C@@H](C(=O)N1CCC[C@H]1C(=O)Nc1ccc2[nH]c(-c3nc4cc(NC(=O)[C@@H]5CCCN5C(=O)[C@@H](c5ccccc5)N(C)C)ccc4o3)cc2c1)c1ccccc1 [Example 190, (2S)-1-[(2R)-2-(dimethylamino)-2-phenylacetyl]-N-(2-{5-[({(2S)-1-[(2R)-2-(dimethylamino)-2-phenylacetyl]pyrrolidin-2-yl}carbonyl)amino]-1,3-benzoxazol-2-yl}-1H-indol-5-yl)pyrrolidine-2-carboxamide]	10.17
